{
  "source": "paper PMC12534982",
  "about": "(Journal of Experimental & Clinical Cancer Research : CR, 2025)",
  "format_in_all_cases": "cell-based, human",
  "key": {"[1]": {"system": "colorectal cancer cells", "assay": "Mitochondrial membrane potential (MitoTracker Red)", "procedure": "Cancer cells (1 × 10^3) were cultured in 8-well collagen IV Ibidi chamber slides and treated with DMSO or NK-A 17E-233I (25 µM) for 24 h. The media was replaced with fresh media containing 100 nM MitoTracker Red dye to measure ΔΨm (1 mM stock; #M7512; Thermo Fisher Scientific) and 5 µM CellROX Deep Red Reagent to assess oxidative stress levels (2.5 mM stock; #C10422; Thermo Fisher Scientific) for 45 min. The cells were then fixed with 4% methanol-free PFA, washed with PBS, and mounted with Ibidi mounting medium containing 4',6-diamidino-2-phenylindole (DAPI) prior to imaging.\nThe density of γ-H2AX, Rad51, ΔΨm, and oxidative stress in cancer cells was measured as described in [32], utilizing custom macros available as open access at Zenodo (https://zenodo.org/records/8387899) to obtain raw intensities and individual cell area."}, "[2]": {"system": "colorectal cancer cells", "assay": "Cleaved caspase-3 by flow cytometry", "conditions": "25 µM, 48 h", "procedure": "Cancer cells (3 × 10^4) were cultured in 48-well plates and treated with DMSO or NK-A 17E-233I (25 µM) for 48 h. Following treatment, the cells were harvested, and the supernatant was discarded. Cell pellets were resuspended in 4% methanol-free paraformaldehyde (PFA, #28908; Thermo Fisher Scientific) while vortexing and incubated in the dark at room temperature for 15 min. One milliliter of PBS was added to all tubes, followed by centrifugation at 500 × g for 5 min. The supernatant was discarded, and the pellets were permeabilized using 90% cold methanol with incubation on ice for 10 min. Subsequently, 1 mL of 0.5% BSA (#A3059; Sigma-Aldrich) was added, and the samples were centrifuged at 500 × g for 5 min. The supernatant was discarded, and the pellets were resuspended in 0.5% BSA. The anti–caspase-3 (p17, Cleaved-Asp175) primary antibody (#9661; Cell Signaling, dilution 1:800) was used to incubate samples at room temperature for 1 h. Afterwards, 0.5% BSA was added, and the tubes were centrifuged at 500 × g for 5 min. The supernatant was discarded, and the pellets were resuspended in 0.5% BSA. The samples were then incubated with F(ab')2-Goat anti-Rabbit IgG (H + L) Cross-Adsorbed Secondary Antibody, Alexa Fluor 633 (#A-21072; Invitrogen, dilution 1:1000) in the dark at room temperature for 30 min. […]"}, "[3]": {"system": "healthy fibroblasts and keratinocytes", "assay": "Cell viability / morphology in healthy cells", "conditions": "25 µM, 48 h", "source_text": "Brightfield images were captured using a Leica DMi8 microscope with a 10X or 20X objective (HC PL FLUOTAR 10X/0.45 or 20X/0.75) equipped with a Leica DFC9000GT camera, and processed with a Leica Application Suite X (LAS X) Life Science Microscope Software (v3.5.5.19976, RRID:SCR_013673)."}, "[4]": {"system": "colorectal cancer cells", "assay": "Neutral comet assay", "conditions": "25 µM", "procedure": "The assay was conducted as described in [20]. Cancer cells (2–3 × 10^5) were cultured in 6-well plates and treated with DMSO or NK-A 17E-233I (25 µM) for 1 or 24 h. After treatment, the cells were harvested and suspended in Comet Low Melting Agarose (LMA; Trevigen). Once the LMA solidified, the glass slides (CometSlide) were placed in a cell lysis buffer at 4 °C overnight. Electrophoresis was performed using a comet assay electrophoresis system (21 V for 40 min). The slides were subsequently washed and stained with SYBR® Gold dye (Invitrogen) in the dark for 30 min. DNA migration was observed using a fluorescence microscope (AF6000, Leica) equipped with a HCX PL APO 63x (NA = 1.4) oil objective. Comet tail lengths were measured with ImageJ/FIJI, analyzing over 100 cells per each condition."}},
  "data": [
    {"smiles": "COc1cc(C)c(Oc2cc(C)cc(O)c2O)c(O)c1", "note": "[NK-A 17E-233I]", "values": [
      {"measurement": "mitochondrial membrane potential (ΔΨm)", "setting": "[1]; HCT116, 25 µM, 24 h", "result": "significantly decreased"},
      {"measurement": "mitochondrial membrane potential (ΔΨm)", "setting": "[1]; different cancer cell lines (HT-29), 25 µM", "result": "decreased"},
      {"measurement": "active caspase-3 staining", "setting": "[2]", "result": "significantly increased"},
      {"measurement": "cytotoxic effects in healthy cells", "setting": "[3]", "result": "no similar effects were observed"},
      {"measurement": "comet tails (DNA double-strand breaks)", "setting": "[4]", "result": "longer comet tails"}
    ]}
  ]
}
